Assay results: patent US20110071129A1, “SPIRODIAMINE-DIARYL KETOXIME DERIVATIVE” (priority 2008, published 2011)

What follows are molecules tested against T1, human MCH-1R (Homo sapiens, UniProt Q99705) (assay: MCH binding inhibition test). Settings: inhibition of specific [125I]MCH (50 pM) binding; membranes of MCH-1R expressing CHO-K1 cells; 25° C., one hour.
T1 construct: expressed in transfected cells; host or cells: CHO-K1 (American Type Culture Collection), vector pEF/myc/cyto; membranes used
Protocol: A human MCH-1R encoding cDNA sequence [FEBS Letters, Vol. 398, 253 (1996); Biochimica et Biophisica Acta, Vol. 1401, 216 (1998)] was cloned to a plasmid vector pEF/myc/cyto (by Invitrogen Corporation). The obtained expression vector was transfected to host cells CHO-K1 (American Type Culture Collection) using Lipofectamine Plus Reagent (by Life Technology Inc.) to provide MCH-1R expression cells.
Membrane samples prepared from the MCH-1R expression cells were incubated with each test compound and 50 pM of [^125I]MCH (by NEN Co.), in an assay buffer (50 mM Tris buffer comprising 10 mM magnesium chloride, 2 mM ethylenediamine tetraacetate, 0.01% bacitracin and 0.2% bovine serum albumin; pH 7.4) at 25° C. for an hour, followed by filtration through a glass filter GF/C (by Wattman Co.). After washing the glass filter with 50 mM Tris buffer (pH 7.4) comprising 10 mM magnesium chloride, 2 mM ethylenediamine tetraacetate and 0.04% Tween-20, the radioactive activity on the glass filter was measured. The non-specific binding was measured in the presence of 1 μM human MCH, and the 50% inhibition concentration (IC50 value) of each test compound to the specific [^125I]MCH binding was determined.

T1 sequence (Q99705 whole entry): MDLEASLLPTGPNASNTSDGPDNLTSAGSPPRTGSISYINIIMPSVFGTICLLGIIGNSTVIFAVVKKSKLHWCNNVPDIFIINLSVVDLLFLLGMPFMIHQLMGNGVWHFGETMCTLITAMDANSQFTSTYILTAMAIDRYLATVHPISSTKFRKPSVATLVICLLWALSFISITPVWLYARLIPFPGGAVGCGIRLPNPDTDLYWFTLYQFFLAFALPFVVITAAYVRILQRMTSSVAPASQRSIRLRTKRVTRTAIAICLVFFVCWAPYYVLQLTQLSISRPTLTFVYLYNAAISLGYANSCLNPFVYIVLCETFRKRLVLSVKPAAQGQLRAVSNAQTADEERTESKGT

SMILES	IC50
CCO/N=C(\c1ccc(F)c(F)c1)c1ccc(CN2CC3(CCN(c4ccc(F)nc4)C3)C2)cn1 [Example 1-10, (E)-(3,4-difluorophenyl)(5-{[6-(6-fluoro-3-pyridinyl)-2,6-diazaspiro[3.4]oct-2-yl]methyl}-2-pyridinyl)methanone O-ethyloxime]	7.6 nM
CCO/N=C(\c1ccc(F)c(F)c1)c1ccc(CN2CCC3(CCN(c4ccnnc4)C3)C2)cn1 (centres unmarked) [Example 2-3, (E)-(3,4-difluorophenyl)(5-{[7-(4-pyrazinyl)-2,7-diazaspiro[4.4]non-2-yl]methyl}-2-pyridinyl)methanone O-ethyloxime]	3.2 nM
CCO/N=C(\c1ccc(F)c(F)c1)c1ccc(CN2CC3(C2)CN(c2ccnc(C)c2)C3)cn1 [Example 2-24, (E)-(3,4-difluorophenyl)(5-{[6-(2-methyl-4-pyridinyl)-2,6-diazaspiro[3.3]hept-2-yl]methyl}-2-pyridinyl)methanone O-ethyloxime]	2.4 nM
CCO/N=C(\c1ccc(F)c(F)c1)c1ccc(CN2CC3(C2)CN(c2ccn4ccnc4c2)C3)cn1 [Example 2-40, (E)-(3,4-difluorophenyl){5-[(6-imidazo[1,2-a]pyridin-7-yl-2,6-diazaspiro[3.3]hept-2-yl)methyl]-2-pyridinyl}methanone O-ethyloxime]	0.9 nM
CCCc1cnc2cc(N3CC4(CN(Cc5ccc(/C(=N/OCC)c6ccc(F)c(F)c6)nc5)C4)C3)ccn12 [Example 2-44, (E)-(3,4-difluorophenyl)(5-{[6-(3-propylimidazo[1,2-a]pyridin-7-yl)-2,6-diazaspiro[3.3]hept-2-yl]methyl}-2-pyridinyl)methanone O-ethyloxime]	0.36 nM
